Laboratory results taken from US8871728B2, “Non-peptide macrocyclic histone deacetylese (HDAC) inhibitors and methods of making and using thereof” (Georgia Tech Research Corporation, priority 2007, dated 2014).
Like-named read-outs stand apart in the source and are kept apart here.

Legend:
[1] = test system: HeLa nuclear extract HDAC1/2; test: Fluor de Lys HDAC inhibition, HeLa nuclear extract; format: biochemical, human
From the text: (§1) Fluor de Lys™ is a fluorescence based HDAC activity assay comprising a combination of fluorogenic Histone deAcetylase Lysyl substrate and a developer. The kit is a highly sensitive and convenient alternative to radiolabeled, acetylated histones or peptide/HPLC methods for the assay of histone deacetylases. This assay is based on the ability of HeLa nuclear extract, which is enriched in HDAC activity, to mediate the deacetylation of the acetylated lysine side chain of the Fluor de Lys substrate. The assay procedure requires two steps. First, incubation of the HeLa nuclear extract with the Fluor de Lys substrate results in substrate deacetylation and thus sensitizes it to the second step. In the second step, treatment of the deacetylated substrate with the Fluor de Lys developer produces a fluorophore. The substrate-developer reaction, under normal circumstances goes to completion in less than 1 min at 25° C. The kit used was the Fluorimetric Assay/Drug Discovery Kit—AK-500 Manual Fluorescent Assay System available from BIOMOL® International, Plymouth Meeting, Pa.
Each IC50 value was obtained by averaging three independent experiments.

HDAC8 = HDAC8 (Homo sapiens (Human), UniProt Q9BY41); test: Fluor de Lys HDAC8 inhibition; format: biochemical; conditions: for IC50: read-out: HDAC 8; for HDAC8: Nuclear Extract Isoform Selectivity: ratio of IC50 HDAC8 to nuclear extract
HDAC8, sequence (Q9BY41 whole entry, canonical isoform): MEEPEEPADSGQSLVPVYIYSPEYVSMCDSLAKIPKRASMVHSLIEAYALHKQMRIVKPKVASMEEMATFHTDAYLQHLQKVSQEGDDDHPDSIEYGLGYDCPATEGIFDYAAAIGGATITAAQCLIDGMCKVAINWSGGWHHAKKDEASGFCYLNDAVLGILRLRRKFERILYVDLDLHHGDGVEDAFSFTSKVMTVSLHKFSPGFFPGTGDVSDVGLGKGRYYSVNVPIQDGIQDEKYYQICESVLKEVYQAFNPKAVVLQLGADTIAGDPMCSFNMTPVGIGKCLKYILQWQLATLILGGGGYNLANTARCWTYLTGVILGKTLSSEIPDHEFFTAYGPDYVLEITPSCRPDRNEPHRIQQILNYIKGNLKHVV

DU 145 cells = test: Cell viability, trypan blue exclusion; format: cell-based; conditions: Homo sapiens
From the text: (§2) Most importantly, the compounds we less toxic to untransformed cell-lines (lung fibroblast and HMEC).
(§3) Most importantly, these compounds are less toxic to untransformed cell-lines (lung fibroblast and HMEC) that we have studied to date.

HMEC = test: Cell viability, trypan blue exclusion; format: cell-based; conditions: Homo sapiens; untransformed cells
From the text: as §2, §3

NCI-H69 = test: Cell viability, trypan blue exclusion; format: cell-based; conditions: Homo sapiens
From the text: as §2, §3

SKMES 1 = test: Cell viability, trypan blue exclusion; format: cell-based; conditions: Homo sapiens, SK-MES-1
From the text: as §2, §3

lung fibroblasts = test: Cell viability, trypan blue exclusion; format: cell-based; conditions: Fibroblast; untransformed cells
From the text: as §2, §3

HDAC6 = HDAC6 (Homo sapiens (Human), UniProt Q9UBN7); test: Fluor de Lys HDAC6 inhibition; format: biochemical; conditions: for IC50: Table 5, read-out: HDAC 6; for HDAC6: Nuclear Extract Isoform Selectivity: ratio of IC50 HDAC6 to nuclear extract
HDAC6, sequence (Q9UBN7 whole entry, canonical isoform): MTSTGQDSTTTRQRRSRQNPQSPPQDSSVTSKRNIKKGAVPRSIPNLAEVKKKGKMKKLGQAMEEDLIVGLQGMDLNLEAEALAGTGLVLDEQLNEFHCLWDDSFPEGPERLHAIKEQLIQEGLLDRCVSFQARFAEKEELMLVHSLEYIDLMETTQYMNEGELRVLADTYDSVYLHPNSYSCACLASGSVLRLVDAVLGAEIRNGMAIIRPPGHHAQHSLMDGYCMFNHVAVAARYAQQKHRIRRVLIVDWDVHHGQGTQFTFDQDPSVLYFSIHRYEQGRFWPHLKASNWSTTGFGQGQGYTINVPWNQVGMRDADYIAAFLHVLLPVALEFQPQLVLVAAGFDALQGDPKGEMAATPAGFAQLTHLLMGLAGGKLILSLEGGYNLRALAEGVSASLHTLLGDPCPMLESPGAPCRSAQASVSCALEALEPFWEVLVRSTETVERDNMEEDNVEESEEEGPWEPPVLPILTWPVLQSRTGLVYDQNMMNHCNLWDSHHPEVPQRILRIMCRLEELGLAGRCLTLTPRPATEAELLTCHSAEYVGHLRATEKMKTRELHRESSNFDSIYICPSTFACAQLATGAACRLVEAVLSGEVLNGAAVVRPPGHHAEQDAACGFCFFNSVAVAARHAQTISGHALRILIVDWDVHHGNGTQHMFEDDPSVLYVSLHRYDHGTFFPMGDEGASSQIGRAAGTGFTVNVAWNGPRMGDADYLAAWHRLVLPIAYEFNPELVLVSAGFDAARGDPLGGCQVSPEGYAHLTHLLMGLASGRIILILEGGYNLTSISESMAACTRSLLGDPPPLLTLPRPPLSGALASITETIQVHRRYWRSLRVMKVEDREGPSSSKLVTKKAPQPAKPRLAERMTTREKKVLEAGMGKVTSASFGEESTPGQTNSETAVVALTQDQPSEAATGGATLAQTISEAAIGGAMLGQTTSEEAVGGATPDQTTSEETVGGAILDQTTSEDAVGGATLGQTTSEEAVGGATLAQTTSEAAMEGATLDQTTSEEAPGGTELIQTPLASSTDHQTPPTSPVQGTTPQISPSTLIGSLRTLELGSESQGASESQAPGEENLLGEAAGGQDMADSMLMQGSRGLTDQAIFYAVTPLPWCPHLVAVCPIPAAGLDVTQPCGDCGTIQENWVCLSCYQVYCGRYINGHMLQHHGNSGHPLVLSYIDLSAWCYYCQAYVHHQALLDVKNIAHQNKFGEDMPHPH
From the text: as §1
The ketolides 56 were also evaluated for their HDAC inhibitory activity against HDACs 1 and 2 from HeLa cell nuclear extract, HDAC6, and HDAC8 using the Fluor de Lys assay.

breast cancer (MCF-7) = test: Cell viability, MTS colorimetric assay; format: cell-based
Method: (§4) The effect of compounds 56a-e on cancer cell lines: prostate (DU-145), lung (A549), and breast cancer (MCF-7) and a non-transformed cell, human lung fibroblast cell (Hs1.Lu) were also evaluated.

lung (A549) = test: Cell viability, MTS colorimetric assay; format: cell-based
Method: as §4

prostate (DU-145) = test: Cell viability, MTS colorimetric assay; format: cell-based
Method: as §4

[2] = test system: Plasmodium falciparum (D6 clone), chloroquine-sensitive; test: Plasmodium growth inhibition, parasite lactate dehydrogenase assay (Malstat); format: cell-based; conditions: for Plasmodium falciparum (D6 clone) IC50: chloroquine-sensitive; for S.I. D6: selective toxicity index, Vero versus D6
Method: (§5) The compounds described herein were also evaluated for parasitic activity against Plasmodium falciparum and Leismania donovani. P. falciparum and L. donovani are the causative parasites of malaria and leishmaniasis, two human diseases which constitute a serious threat to public health in tropical and sub-tropical countries. Antimalarial activity was evaluated in vitro using chloroquine-sensitive (D6, Sierra Leone) and chloroquine-resistant (W2, Indochina) strains of P. falciparum. Antileishmanial activity was evaluated in vitro against the promastigote stage of L. donovani.
(§6) Plasmodium growth inhibition was determined by a parasite lactate dehydrogenase assay using Malstat reagent. Inhibition of viability of the promastigote stage of L. donovani was determined using standard Alamar blue assay, modified to a fluorometric assay.
as §5, with “Macrocyclic histone deacetylase inhibitors” for “The compounds described herein”, “were” for “were also”
as §6

[3] = test system: Plasmodium falciparum (W2 clone), chloroquine-resistant; test: as above; format: cell-based; conditions: for Plasmodium falciparum (W2 clone) IC50: chloroquine-resistant; for S.I. (W2): selective toxicity index, Vero versus W2, value in brackets
Method: as §5, §6
as §5, with “Macrocyclic histone deacetylase inhibitors” for “The compounds described herein”, “were” for “were also”
as §6

[4] = test system: promastigote stage of L. donovani; test: Antileishmanial Alamar blue fluorometric assay; format: cell-based; conditions: promastigotes
Method: as §5, §6
as §5, with “Macrocyclic histone deacetylase inhibitors” for “The compounds described herein”, “were” for “were also”
as §6

[5] = HeLa nuclear extract, average of three independent experiments, Table 4, read-out: HDAC ½
[6] = average of three independent experiments, Table 4
[7] = HDACs 1 and 2 from HeLa cell nuclear extract, Table 5, read-out: Nuclear Extract

`CC[C@H]1OC(=O)[C@H](C)[C@@H](O)[C@H](C)[C@@H](O[C@@H]2O[C@H](C)C[C@H](N(C)Cc3ccc(-c4cn(CCCCCCCC(=O)NO)nn4)cc3)[C@H]2O)[C@](C)(OC)C[C@@H](C)C(=O)[C@H](C)[C@@H](O)[C@]1(C)O` [Compound 28, Descladinose-Clarithromycin-N-Phenyltriazolyloctahydroxamic acid] gave an IC50 [1, 5] of 123 nM, an IC50 (HDAC8; [6]) of 4420 nM and an EC50 (DU 145 cells) of 5.78 µM. The EC50 (HMEC) was over 10 µM, the EC50 (NCI-H69) was 5.09 µM and the EC50 (SKMES 1) was 4.45 µM. The EC50 (lung fibroblasts) was over 10 µM.
For `CC[C@H]1OC(=O)[C@H](C)[C@@H](O[C@H]2C[C@@](C)(OC)[C@@H](O)[C@H](C)O2)[C@H](C)[C@@H](O[C@@H]2O[C@H](C)C[C@H](N(C)Cc3ccc(-c4cn(CCCCCCCCC(=O)NO)nn4)cc3)[C@H]2O)[C@](C)(OC)C[C@@H](C)C(=O)[C@H](C)[C@@H](O)[C@]1(C)O` [Compound 29, Clarithromycin-N-Phenyltriazolylnonahydroxamic acid], the IC50 [1, 5] was 170 nM, the IC50 (HDAC8; [6]) was 10600 nM and the EC50 (DU 145 cells) was 8.14 µM. For the same molecule, the EC50 (HMEC) was over 10 µM, the EC50 (NCI-H69) was 7.29 µM and the EC50 (SKMES 1) was 7.12 µM. It also gave an EC50 (lung fibroblasts) of over 10 µM.
With `CCC1OC(=O)C(C)C(=O)C(C)C(OC2OC(C)CC(N(C)Cc3ccc(-c4cn(CCCCCC(=O)NO)nn4)cc3)C2O)C(C)(OC)CC(C)C2=NCCN3C(=O)OC1(C)C3C2C` (centres unmarked) [Compound 56a, Tricyclic Ketolide-N-benzyltriazolylhexahydroxamic acid] the IC50 [1, 7] was 7.77 nM, the IC50 (HDAC8; Table 5) was 796 nM and the “HDAC8: Nuclear Extract Isoform Selectivity” value (HDAC8) was 102.5. The IC50 (HDAC6) was 1180 nM, the “HDAC6: Nuclear Extract Isoform Selectivity” value (HDAC6) was 151.9 and the EC50 (breast cancer (MCF-7)) was 1260 nM. For the same molecule, the EC50 (lung (A549)) was 1170 nM, the EC50 (prostate (DU-145)) was 1.64 µM and the “Plasmodium falciparum (D6 clone) IC50” value [2] was 0.96 µg/mL. For the same molecule, the “S.I. D6” value [2] was >5.0 (no value) and the “Plasmodium falciparum (W2 clone) IC50” value [3] was 1.80 µg/mL.
With `CCC1OC(=O)C(C)C(=O)C(C)C(OC2OC(C)CC(N(C)Cc3ccc(-c4cn(CCCCCCC(=O)NO)nn4)cc3)C2O)C(C)(OC)CC(C)C2=NCCN3C(=O)OC1(C)C3C2C` (centres unmarked) [Compound 56b, Tricyclic Ketolide-N-benzyltriazolylheptahydroxamic acid] the “Nuclear Extract (nM)” value ([1]; HDACs 1 and 2 from HeLa cell nuclear extract, Table 5) was “single digit nanomolar”, the IC50 [1, 7] was 1.03 nM and the IC50 (HDAC8; Table 5) was 545 nM. For the same molecule, the “HDAC8: Nuclear Extract Isoform Selectivity” value (HDAC8) was 528.7, the IC50 (HDAC6) was 729 nM and the “HDAC6: Nuclear Extract Isoform Selectivity” value (HDAC6) was 707.5. For the same molecule, the EC50 (breast cancer (MCF-7)) was 750 nM, the EC50 (lung (A549)) was 660 nM and the EC50 (prostate (DU-145)) was 0.82 µM. For the same molecule, the “Plasmodium falciparum (D6 clone) IC50” value [2] was 0.14 µg/mL, the “S.I. D6” value [2] was over 34 and the “Plasmodium falciparum (W2 clone) IC50” value [3] was 0.12 µg/mL. For the same molecule, the “S.I. (W2)” value [3] was over 39.7.
For `CCC1OC(=O)C(C)C(=O)C(C)C(OC2OC(C)CC(N(C)Cc3ccc(-c4cn(CCCCCCCC(=O)NO)nn4)cc3)C2O)C(C)(OC)CC(C)C2=NCCN3C(=O)OC1(C)C3C2C` (centres unmarked) [Compound 56c, Tricyclic Ketolide-N-benzyltriazolyloctahydroxamic acid], the IC50 [1, 7] was 104 nM, the IC50 (HDAC8; Table 5) was 1910 nM and the “HDAC8: Nuclear Extract Isoform Selectivity” value (HDAC8) was 18.3. The IC50 (HDAC6) was 1710 nM, the “HDAC6: Nuclear Extract Isoform Selectivity” value (HDAC6) was 16.4 and the EC50 (breast cancer (MCF-7)) was 1350 nM. The EC50 (lung (A549)) was 1640 nM, the EC50 (prostate (DU-145)) was 3.7 µM and the “Antileshmanial activity IC50” value [4] was 19 µg/mL. For the same molecule, the “Antileshmanial activity IC90” value [4] was 36 µg/mL, the “Plasmodium falciparum (D6 clone) IC50” value [2] was 1.20 µg/mL and the “S.I. D6” value [2] was over 4.0. For the same molecule, the “Plasmodium falciparum (W2 clone) IC50” value [3] was 1.50 µg/mL and the “S.I. (W2)” value [3] was over 3.2.
`CCC1OC(=O)C(C)C(=O)C(C)C(OC2OC(C)CC(N(C)Cc3ccc(-c4cn(CCCCCCCCC(=O)NO)nn4)cc3)C2O)C(C)(OC)CC(C)C2=NCCN3C(=O)OC1(C)C3C2C` (centres unmarked) [Compound 56d, Tricyclic Ketolide-N-benzyltriazolylnonahydroxamic acid] was tested, and the IC50 [1, 7] was 164 nM, the IC50 (HDAC8; Table 5) was 2860 nM and the “HDAC8: Nuclear Extract Isoform Selectivity” value (HDAC8) was 17.5. The IC50 (HDAC6) was 1920 nM, the “HDAC6: Nuclear Extract Isoform Selectivity” value (HDAC6) was 11.7 and the EC50 (breast cancer (MCF-7)) was 2560 nM. For the same molecule, the EC50 (lung (A549)) was 2480 nM, the EC50 (prostate (DU-145)) was 3.89 µM and the “Antileshmanial activity IC50” value [4] was 14 µg/mL. The “Antileshmanial activity IC90” value [4] was 32 µg/mL, the “Plasmodium falciparum (D6 clone) IC50” value [2] was 1.20 µg/mL and the “S.I. D6” value [2] was over 4.0. For the same molecule, the “Plasmodium falciparum (W2 clone) IC50” value [3] was 1.30 µg/mL and the “S.I. (W2)” value [3] was over 3.7.
In the case of `CCC1OC(=O)C(C)C(=O)C(C)C(OC2OC(C)CC(N(C)Cc3ccc(-c4cn(CCCCCCCCCC(=O)NO)nn4)cc3)C2O)C(C)(OC)CC(C)C2=NCCN3C(=O)OC1(C)C3C2C` (centres unmarked) [Compound 56e, Tricyclic Ketolide-N-benzyltriazolyldecahydroxamic acid], the IC50 [1, 7] is reported as 208 nM, the IC50 (HDAC8; Table 5) is reported as 4560 nM and the “HDAC8: Nuclear Extract Isoform Selectivity” value (HDAC8) is reported as 21.9. For the same molecule, the IC50 (HDAC6) was 3200 nM, the “HDAC6: Nuclear Extract Isoform Selectivity” value (HDAC6) was 15.4 and the EC50 (breast cancer (MCF-7)) was 3680 nM. The EC50 (lung (A549)) was 2810 nM, the EC50 (prostate (DU-145)) was 4.83 µM and the “Antileshmanial activity IC50” value [4] was 4.8 µg/mL. The “Antileshmanial activity IC90” value [4] was 23 µg/mL, the “Plasmodium falciparum (D6 clone) IC50” value [2] was 1.20 µg/mL and the “S.I. D6” value [2] was over 4.0. The “Plasmodium falciparum (W2 clone) IC50” value [3] was 0.84 µg/mL and the “S.I. (W2)” value [3] was over 5.7.
